Measured values as given in US10682397B2, “Methods of treating fragile X syndrome and related disorders” (Massachusetts Institute of Technology, priority 2015, dated 2020).
“Also recorded” adds a separate entry of the source.

What was measured:
hippocampal slices [1] = test: Metabolic labeling of new protein synthesis (35S-Met/Cys incorporation) in hippocampal slices; type: cell-based, mice; conditions: CDPPB 10 μM, 30 min
Description: Metabolic labeling of new protein synthesis was performed as previously described (Osterweil et al., J. Neurosci. 46, 15616-27 (2010)). Male P28-P32 littermate mice were anesthetized with isoflurane and the hippocampus was rapidly dissected into ice-cold aCSF (in mM: 124 NaCl, 3 KCl, 1.25 NaH2PO4, 26 NaHCO3, 10 dextrose, 1 MgCl2, 2 CaCl2, saturated with 95% O2 and 5% CO2). Hippocampal slices (500 μm) were prepared using a Stoelting Tissue Slicer and transferred into 32.5° C. aCSF (saturated with 95% O2 and 5% CO2) within 5 mM. Slices were incubated in aCSF undisturbed for 3.5-4 h to allow for recovery of basal protein synthesis. Actinomycin D (25 μM) and vehicle or CDPPB (10 μM) was then added to the recovery chamber for 30 mM to inhibit transcription and stimulate mGlu receptors, respectively after which slices were transferred to fresh aCSF containing ˜10 mCi/ml [^35S] Met/Cys (Perkin Elmer) for an additional 30 mM Slices were then homogenized, and labeled proteins isolated by TCA precipitation. Samples were read with a scintillation counter and subjected to a protein concentration assay (Bio-Rad). Data was analyzed as counts per minute per microgram of protein, normalized to the [^35S] Met/Cys aCSF used for incubation and the average incorporation of all samples analyzed and then normalized to percent wild-type for each experiment. Statistical significance was determined using unpaired t-tests.
To determine the role of β-arrestin2 in mGlu5-mediated protein synthesis, hippocampal slices from male Arrb2^+/− and wild-type (WT) littermates were stimulated with a selective […] positive modulator of mGlu5, 3-Cyano-N-(1,3-diphenyl-1H-pyrazol-5-yl) benzamide (CDPPB, 10 μM, 30 minutes), and the incorporation of ^35S-methionine/cysteine into new protein was measured. mGlu5 activation caused a parallel increase in protein synthesis (FIG. 1A) and ERK1/2 phosphorylation (FIG. 1B) in WT slices, which were both absent in slices from Arrb2^+/− mice. […]

ribosomal protein S6 = test: Immunoblotting of ribosomal protein S6 phosphorylation in hippocampal slices; type: cell-based, mice; conditions: 10 μM CDPPB
Description: (§1) Hippocampal slices were prepared and recovered as described in metabolic labeling experiments. Sets of slices were stimulated with CDPPB (10 μM) for 30 minutes and then flash frozen in liquid nitrogen immediately after stimulation, prior to processing. Yoked unstimulated slices were also processed to assess basal signaling levels Immunoblotting was performed according to established methods using primary antibodies to p-ERK1/2 (Thr202/Tyr204) (Cell Signaling Technology), ERK1/2 (Cell Signaling Technology), p-Akt (Ser473) (Cell Signaling Technology), Akt (Cell Signaling Technology), […] (Cell Signaling Technology) and S6 (Cell Signaling Technology). Protein levels were measured by densitometry (Quantity One), and quantified as the densitometric signal of phospho-protein divided by the total protein signal in the same lane.

ERK1/2 = test: Immunoblotting of ERK1/2 phosphorylation in hippocampal slices; type: cell-based, mice; conditions: CDPPB 10 μM, 30 min
Description: as §1

AKT = test: Immunoblotting of AKT phosphorylation in hippocampal slices; type: cell-based, mice; conditions: 10 μM CDPPB
Description: as §1

hippocampal neurons = test: Fluorescence-based calcium imaging in brain slices (Fluo-4 AM); type: cell-based, mice; conditions: DHPG 25 μM
Description: Hippocampal slices were prepared as described for electrophysiology experiments and recovered in aCSF for 2 hours at 32° C. Slices were then moved to a small recovery chamber and incubated in oxygenated aCSF containing 20 μM fluo-4-acetoxymethyl ester (fluo-4 AM; ThermoFisher) and 0.1% Pluronic F-127 (ThermoFisher) for 1 hour in the dark. After 1 hour, slices were then washed with oxygenated aCSF containing 1 μM tetrodotoxin (Abcam) and 50 μM D-AP5 (Tocris) for 20 minutes in a recording chamber. A low-powered (4×) objective was used to identify the brain region of interest. CA1 pyramidal neurons were visualized using a 40× water immersion objective and a Nikon Eclipse E600FN microscope.
Changes in Ca^2+ fluorescence were monitored in the presence of 1 μM tetrodotoxin and 50 μM D-AP5 using a Hamamatsu ORCA-100 camera, HClmage software (Hamamatsu), and a mercury arc-lamp and power supply (Nikon). After a 10 second baseline, 25 μM (S)-3,5-DHPG was bath applied. […] Data were analyzed using Image J software. Increases in Ca^2+ mobilization in hippocampal neurons were reported as changes in relative fluorescence divided by the baseline fluorescence (ΔF/F).
To assay the integrity of Gq signaling, calcium mobilization in hippocampal slices from WT and Arrb2^+/− animals was measured using the cell-permeable calcium fluorescent dye Fluo4-AM. […]

mice = test: MK801-induced hyperlocomotion in the open field; type: in vivo; conditions: for MK801-induced hyperlocomotion: MTEP 10 mg/kg i.p. pre-treatment, MK801 0.3 mg/kg
Description: To determine the effects of genotype on MK801-induced hyperlocomotion, mice were habituated in the open field (40 cm×40 cm×40 cm box) for 60 min, followed by the administration of vehicle or MK801 and locomotor activity was recorded for another 60 mM. To determine the effects of MTEP by genotype on MK801-induced hyperlocomotion, mice were habituated in the open field for 30 min, followed by the intraperitoneal (i.p.) administration of MTEP (10 mg/kg at a dosing volume of 10 ml/kg). After an additional 30 mM, MK801 (0.3 mg/kg at a dosing volume of 10 ml/kg) was administered i.p. and locomotor activity was recorded for another 60 mM. The time course of drug-induced changes in ambulation was expressed as cm traveled/5 mM over the 120-min session. Sessions were recorded using Plexon's CINEPLEX® Studio and analyzed using Plexon's CINEPLEX® Editor and code written in MATLAB. MK801-induced locomotor activity was scored and analyzed using the average of the final 5 minutes (minute 115-120) per cohort.

hippocampal slices [2] = test: mGlu-LTD (DHPG-induced) field recordings in hippocampal slices; type: cell-based, mice
Description: Slices were prepared as described previously (Dolen et al., Neuron 6, 955-56 (2007)). Acute hippocampal slices (350 μm) were prepared from P28-35 animals in ice-cold dissection buffer containing (in mM): NaCl 87, Sucrose 75, KCl2.5, NaH2PO4 1.25, NaHCO3 25, CaCl2 0.5, MgSO4 7, Ascorbic acid 1.3, and D-glucose 10 (saturated with 95% O2/5% CO2). Immediately following slicing the CA3 region was removed. Slices were recovered in artificial cerebrospinal fluid (aCSF) containing (in mM): NaCl 124, KCl5, NaH2PO4 1.23, NaHCO3 26, CaCl2 2, MgCl2 1, and D-glucose 10 (saturated with 95% O2/5% CO2) at 32.5° C. for ≥3 hours prior to recording.
Field recordings were performed in a submersion chamber, perfused with aCSF (2-3 ml/min) at 30° C. Field EPSPs (fEPSPs) were recorded in CA1 stratum radiatum with extracellular glass electrodes (1-2 MΩ) filled with aCSF. Baseline responses were evoked by stimulation of the Schaffer collaterals at 0.033 Hz with a 2-contact cluster electrode (FHC) using a 0.2 ms stimulus yielding 40-60% of the maximal response. fEPSP recordings were filtered at 0.1 Hz-1 kHz, digitized at 10 kHz, and analyzed using pClamp9 (Axon Instruments). […]
Paired pulse facilitation was induced by applying two pulses at different interstimulus intervals. Facilitation was measured by the ratio of the fEPSP slope of stimulus 2 to stimulus 1. […]

## N#Cc1cccc(C(=O)Nc2cc(-c3ccccc3)nn2-c2ccccc2)c1 [CDPPB, 3-Cyano-N-(1,3-diphenyl-1H-pyrazol-5-yl) benzamide]
Hippocampal slices [1]; Arrb1+/− slices
  Protein synthesis compared with vehicle: similarly elevated
Hippocampal slices [1]; Arrb2+/− slices
  Protein synthesis compared with vehicle: no effect
Hippocampal slices [1]; WT slices
  Protein synthesis compared with vehicle: similarly elevated
Ribosomal protein S6; WT and Arrb1+/− slices
  S6 phosphorylation compared with vehicle: Neither WT nor Arrb1^+/− slices stimulated with CDPPB show elevated S6 phosphorylation
Ribosomal protein S6; WT and Arrb2+/− slices
  S6 phosphorylation compared with vehicle: Neither WT nor Arrb2^+/− slices stimulated with CDPPB show elevated S6 phosphorylation
ERK1/2; Arrb1+/− slices
  ERK1/2 phosphorylation compared with vehicle: elevated
ERK1/2; Arrb2+/− slices
  ERK1/2 phosphorylation compared with vehicle: no change
ERK1/2; WT slices
  ERK1/2 phosphorylation compared with vehicle: elevated
AKT; WT and Arrb1+/− slices
  AKT phosphorylation compared with vehicle: Neither WT nor Arrb1^+/− slices stimulated with CDPPB show elevated AKT phosphorylation
AKT; WT and Arrb2+/− slices
  AKT phosphorylation compared with vehicle: Neither WT nor Arrb2^+/− slices stimulated with CDPPB show elevated AKT phosphorylation

## N[C@H](C(=O)O)c1cc(O)cc(O)c1 [DHPG, (S)-3,5-Dihydroxyphenylglycine]
Hippocampal neurons; 1 min, WT and Arrb2+/− slices (not significantly different)
  Ca2+-mediated fluorescence: rapid increase

## C[C@]12N[C@H](Cc3ccccc31)c1ccccc12 [MK801]
mice; MK801 0.3 mg/kg i.p., 60 minutes post-treatment, WT and Arrb2+/− mice (comparable)
  Locomotor activity compared to vehicle: hyperlocomotion

## Cc1nc(C#Cc2cccnc2)cs1 [MTEP, 3-[(2-Methyl-1,3-thiazol-4-yl)ethynyl]-pyridine]
mice; Arrb2+/− mice
  MK801-induced hyperlocomotion: continues to exacerbate; also recorded: potentiates
mice; WT mice
  MK801-induced hyperlocomotion: significantly potentiates

## COc1ccc2c(c1)CC[C@@H]1[C@@H]2CC[C@]2(C)[C@@H](NCCCCCCN3C(=O)C=CC3=O)CC[C@@H]12 [U73122]
Hippocampal neurons; pretreatment with 10 μM U73122, data not shown
  DHPG-induced changes in calcium fluorescence: completely blocked

## C[C@@H]1C[C@@H]([C@H](O)CC2CC(=O)NC(=O)C2)C(=O)[C@@H](C)C1 [cycloheximide]
Hippocampal slices [2]; Arrb2+/− slices, cycloheximide 60 μM, listed as CHX
  DHPG-LTD (25 μM, 5 min) magnitude: unaffected; also recorded: no effect
Hippocampal slices [2]; WT slices, cycloheximide 60 μM pretreatment
  DHPG-LTD (25 μM, 5 min) magnitude: significantly diminished; also recorded: significantly attenuated
